# Results as given in patent US6110716A, “HIV integrase inhibitors” (Merck & Co., Inc., priority 1998, dated 2000).
# How the values were obtained:
# [1] = target: T1, HIV-1 integrase (Human immunodeficiency virus type 1 group M subtype B, UniProt P04585); experiment: HIV Integrase Substrate Cleavage (trimming of the 3' end of HIV long terminal repeat terminus by HIV-1 integrase); type: biochemical; conditions: inhibition of HIV integrase substrate cleavage; inhibitor 0.75 to 100 μM
# T1 construct: HIV long terminal repeat terminus by HIV-1 integrase
# Protocol: HIV Integrase Substrate Cleavage
# An assay for trimming of the 3' and of HIV long terminal repeat terminus by HIV-1 integrase was conducted according to LaFemina, R. L. et al., J. Virol 10, 5624 (1991), herein incorporated by reference for these purposes. To assay inhibition of HIV integrase substrate cleavage, the reaction was conducted with inhibitor having various concentrations in the range of 0.75 to 100 μM.
# [2] = target: HIV integrase (Human immunodeficiency virus type 1 group M subtype B, UniProt P04585); experiment: Strand Transfer Assay for HIV Integrase (microtiter assay for ligation of processed donor (HIV) DNA to unspecific, nicked host DNA); type: biochemical; conditions: inhibition of strand transfer by HIV integrase; inhibitor 0.75 to 100 μM
# Protocol: Strand Transfer Assay for HIV Integrase
# A microtiter assay for ligation of processed donor (HIV) DNA to unspecific, nicked host DNA was conducted according to Hazuda, D. J. et al., Nucl. Acids, Res. 22, 1121 (1994), herein incorporated by reference for these purposes. To assay inhibition of such strand transfer by HIV integrase, the reaction was conducted with inhibition having various concentrations in the range of 0.75 to 100 μM. Representative results follow.
SMILES,IC50 [1] [µM],IC50 [2] [µM]
COc1cc(OC)c2c(OC)c3c(cc2c1-c1c(OC)cc(OC)c2c(OC)c4c(cc12)OC(C)C(C)C4=O)OC(C)C(C)C3=O (stereo not drawn) [Compound G],60,
COc1cc(O)c2c(OC)c3c(cc2c1-c1c(OC)cc(OC)c2c(OC)c4c(cc12)OC(C)C(C)C4=O)OC(C)C(C)C3=O (stereo not drawn) [Compound F],40,
"CC1Oc2cc3c(-c4c(O)cc(O)c5c(O)c6c(cc45)OC(C)C(C)C6=O)c(O)cc(O)c3c(O)c2OC(=O)C1C (single isomer, unassigned) [Compound C]",3,9
CC1Oc2cc3c(-c4c(O)cc(O)c5c(O)c6c(cc45)OC(C)C(C)C6=O)c(O)cc(O)c3c(O)c2C(=O)C1C (stereo not drawn) [Compound A],2,12
CC(=O)Oc1cc(OC(C)=O)c2c(OC(C)=O)c3c(cc2c1-c1c(OC(C)=O)cc(OC(C)=O)c2c(OC(C)=O)c4c(cc12)OC(C)C(C)C4=O)OC(C)C(C)C3=O (stereo not drawn) [E],50,
Cc1oc2cc3c(-c4c(O)cc(O)c5c(O)c6c(cc45)O[C@@H](C)[C@@H](C)C6=O)c(O)cc(O)c3c(O)c2c(=O)c1C (relative stereo) [Compound D],1,4
